Test [1] addresses ALK tyrosine kinase receptor (Homo sapiens, UniProt Q9UM73).
Test [2] concerns the target ALK tyrosine kinase receptor (Homo sapiens, UniProt Q9UM73, L1196M).
Test [3] concerns BaF3. The test can be described thus: cells. To be noted: Mus musculus.
Description: Cytotoxicity against mouse BAF3 cells assessed as growth inhibition after 72 hrs by [3H]-thymidine incorporation assay

What is called IC50 is the point on the concentration scale where inhibition reaches its midpoint. A high value points to weaker potency in that assay. `Clc1cc2nc3ccccc3n2cn1`: the IC50 in test [1] is over 100 µM. Turning to `c1ccc(Nc2cc3nc4ccccc4n3cn2)cc1`, the IC50 in test [2] stood at 10 µM; in test [1], 52 µM. For `O=[N+]([O-])c1cccc(Nc2cc3nc4ccccc4n3cn2)c1` the same measures were 14 µM and 10 µM. `COc1cccc(Nc2cc3nc4ccccc4n3cn2)c1`: the IC50 in test [1] came to 51 µM. In the case of `Clc1cc2nc3ccc(Br)cc3n2cn1`, the IC50 in test [1] is over 50 µM. For the compound `Brc1ccc2nc3cc(Nc4ccccc4)ncn3c2c1`, the IC50 came out at 49 µM in test [2], 69 µM in test [1] and 5.2 µM in test [3]. Consider `COc1ccc(-c2cc3nc4ccc(Br)cc4n3cn2)cc1`, for which the IC50 in test [1] is 10 µM; in test [3], over 25 µM.

`Clc1cncc2nc3ccccc3n12` displayed an IC50 in test [1] of over 100 µM. Take `Clc1cncc2nc3ccc(Br)cc3n12`: the IC50 in test [1] was over 50 µM; in test [3], 2.4 µM.

Consider `CN1CCN(c2ccc(-c3ccc4nc5cncc(-c6ccc(N7CCN(C)CC7)cc6)n5c4c3)cc2)CC1`, for which the IC50 in test [2] was 29 µM; in test [1], over 100 µM; in test [3] it was 0.87 µM. `COc1ccc(-c2cncc3nc4ccc(-c5ccc(NC(C)=O)cc5)cc4n23)cc1` yielded an IC50 in test [1] of 18 µM. Still for that read-out and setting: for `COc1ccc(-c2cncc3nc4ccc(-c5ccc(N6CCN(C)CC6)cc5)cc4n23)cc1` the value was 14 µM. With `COc1ccc(-c2cncc3nc4ccc(/C=C/c5ccccc5)cc4n23)cc1`, the results for the IC50 in test [2] and in test [1] were 4.5 µM and 3.5 µM, respectively. `COc1ccc(-c2ccc3nc4cncc(/C=C/c5ccccc5)n4c3c2)cc1`: the IC50 is 1.5 µM in test [2], 0.65 µM in test [1] and over 12.5 µM in test [3].

The record behind these values is ChEMBL document CHEMBL3112523, “Synthesis and biological evaluation of benzo[4,5]imidazo[1,2-c]pyrimidine and benzo[4,5]imidazo[1,2-a]pyrazine derivatives as anaplastic lymphoma kinase inhibitors” (Bioorg Med Chem, 2014).
